Data as given in patent US7018642B2 (The Procter & Gamble Company, priority 2001, dated 2006).

Legend:
Type in all cases: cell-based
[1] = test system: P. aeruginosa strain PAO1; experiment: Biofilm prevention screen (96-well microplate, crystal violet); details: Pseudomonas aeruginosa, positive = prevention, negative = enhancement of biofilm formation, quadruplicate, read-out: average percentage reduction of biofilm formed relative to DMSO controls
Description: (§1) Overnight cultures of 3 mL are made of P. aeruginosa strain PAO1 (grown in R2A medium (Handbook of Microbiological Media; CRC Press, 1997, second edition, R. M. Atlas, ed.), modified to omit Mg^2+ but to include 0.3–0.5% fructose (pH 7.0) and 3 μM ferrous ammonium sulfate), P. fluorescens strain ATCC 13525 (grown in R2A modified to omit Mg^2+ but to include 0.3–0.5% sodium pyruvate (pH 7.0)), S. epidermidis strain ATCC 35984 (grown in a ¼ dilution of TSB (Handbook of Microbiological Media; CRC Press, 1997, second edition, R. M. Atlas, ed.) supplemented with 1% fructose (pH 7.0) and 3 μM ferrous ammonium sulfate). To each type of growth medium, HEPES (pH 7.3) is optionally added to a final concentration of 10 mM.
(§2) To PS, PVC, or PP (preferably PP or PVC) round-bottom, 96-well microplates containing 100 μl per well of the respective growth medium as described above, compounds to be tested (dissolved in DMSO) are added and mixed, to give a final concentration of 250–500 μM. These microplates then also are used to make successive dilutions of the compounds in the same respective growth medium to yield microplates containing final concentrations of, for example, 160 μM and 32 μM of the same set of compounds. Control wells are included in the dilution series that contain only DMSO. From the 3 ml overnight cultures, each of the three dilution plate sets is inoculated with 5 μl per well of a 1:1 dilution in the same liquid growth media of the appropriate culture. The covered plate is then incubated with shaking, at 30° C. (for P. aeruginosa or P. fluorescens) or 37° C. (for S. epidermidis), at 200 rpm, for 16–26 hours, in a humidity controlled environment.
(§3) Cells present in biofilm attached to the microplate surface are stained with CV either after removal of the liquid from each well, followed by rinsing three times (aspiration and addition) with 150 μl per well phosphate buffered saline solution (PBS) and final addition of 100 μl per well of PBS, or by direct addition of stain to bacterial cultures without rinsing. To 100 μl per well of PBS or of bacterial culture, 25 μl/well of 1% CV solution (in ˜10% ethanol) is added. After incubation at room temperature for 45 minutes, the dye solution is removed from the plates. Residual dye is immediately removed by gentle rinsing with a stream of deionized water by filling and inverting the plates 4–5 times, or by using an automated pipettor. Rinsed plates are air-dried at room temperature for 0.5–2 hours. Bound dye is extracted by the addition of 150 μL per well of 95% ethanol, followed by vigorous mixing for 10–15 seconds and incubation for 45 minutes at room temperature without shaking. Subsequently, either undiluted or diluted (in ethanol) samples of extracted CV are transferred to flat bottom, polystyrene microtiter plates and absorbances at 586 nm were measured in a microplate reader. Readings from wells containing compounds are compared to the average of data from control wells that contain only DMSO. Replicate samples are measured, and results are reported as averages of the replicate well data points.
(§4) Data are expressed in terms of the average percentage reduction of biofilm formed in the presence of each compound, relative to the DMSO controls, for quadruplicate samples. Assays are run using the three compound concentrations indicated. Positive numbers indicate prevention of biofilm formation by a compound, and negative numbers indicate enhancement of biofilm formation by a compound (percentage coefficients of variation are ≦10%).

[2] = test system: P. fluorescens strain ATCC 13525; experiment: as above; details: Pseudomonas fluorescens, positive = prevention, negative = enhancement of biofilm formation, quadruplicate, read-out: average percentage reduction of biofilm formed relative to DMSO controls; for inhibition at 32 µM: ATCC13525, 32 μM; for inhibition at 160 µM: ATCC13525, 160 μM; for inhibition at 390 µM: ATCC13525, 390 μM
Description: as §1, §2, §3, §4

[3] = test system: S. epidermidis strain ATCC 35984; experiment: as above; details: Staphylococcus epidermidis, positive = prevention, negative = enhancement of biofilm formation, quadruplicate, read-out: average percentage reduction of biofilm formed relative to DMSO controls; for inhibition at 32 µM: ATCC35984, 32 μM; for inhibition at 160 µM: ATCC35984, 160 μM; for inhibition at 390 µM: ATCC35984, 390 μM
Description: as §1, §2, §3, §4

[4] = test system: P. aeruginosa strain PAO1; experiment: Improved biofilm dispersion screen (already-formed biofilms, crystal violet); details: Pseudomonas aeruginosa, 30 mM NaOH step, positive = dispersion, negative = enhancement of pre-existing biofilm, quadruplicate, read-out: average percentage reduction of biofilm relative to the two control values (dispersion)
Description: (§5) A modification of method disclosed in Reference Example 2, which greatly improves the sensitivity and reproducibility of the dispersion screen is hereby disclosed. […] In the modification described herein, compounds are added in the presence of the fresh liquid growth media, such that the resultant biofilms continue to grow, unless a test compound triggers their dispersion. Overnight cultures are made as above, and 100 μL of the appropriate liquid growth media are dispensed into duplicate 96 well microplates—in this fashion, two identical microplates are set up for each bacterial species to be assayed. Neither compounds nor DMSO are added prior to the inoculation of bacteria, and growth in the duplicate plates for 24 hours is allowed using the conditions specified in Reference Example 1. After growth of biofilm to be tested in the wells, cells present in biofilm attached to one of the duplicate microplates is stained with CV, quantitated as described in Reference Example 1, and the data for the entire plate averaged, resulting in a growth control value, t0. The remaining replicate of each microplate pairs is treated with compounds in DMSO, or DMSO alone for control wells, by first removing the cell suspensions from the wells, then adding fresh 100 μL volumes of the same appropriate liquid growth media, followed by direct addition and mixing of the compound DMSO solutions to give final compound concentrations of 390 μM. Incubation of the compound-containing microplates is then continued for an additional 22–26 hours using the same conditions described in Reference Example 1. Cell suspensions are then removed, 100 μL per well of a 0 mM NaOH (S. epidermidis), 20 mM NaOH (P. fluorescens), or 30 mM NaOH (P. aeruginosa) solution in PBS is added, and incubation at room temperature is allowed for 30 minutes. No addition of NaOH is made to the S. epidermidis suspension since a test assay indicated no amplification by base with S. epidermidis. The microplates are subsequently rinsed three times with 150 μL per well of PBS, followed by final liquid removal, staining with CV and quantitation as described in Reference Example 1. Data for each well that contained compound result in a compound value, R, and data for control wells that contained DMSO only are averaged to generate a second control value, t24. The effect of each compound tested on dispersion of the biofilm compared to the two control values is calculated thus: [formula] […] Data are expressed in terms of the average percentage reduction of biofilm formed in the presence of each compound, relative to the two control values, for quadruplicate samples. Assays are run as described above, using compound concentrations of 390 μM. Positive numbers indicate dispersion (reduction) of pre-existing biofilms by a compound, and negative numbers indicate enhancement (stimulation of growth) of pre-existing biofilms by a compound (percentage coefficients of variation are ≦15%).

[5] = test system: P. fluorescens strain ATCC 13525; experiment: as above; details: Pseudomonas fluorescens, ATCC13525, 20 mM NaOH step, positive = dispersion, negative = enhancement of pre-existing biofilm, quadruplicate, read-out: average percentage reduction of biofilm relative to the two control values (dispersion)
Description: as §5

[6] = test system: S. epidermidis strain ATCC 35984; experiment: as above; details: Staphylococcus epidermidis, ATCC35984, no NaOH, positive = dispersion, negative = enhancement of pre-existing biofilm, quadruplicate, read-out: average percentage reduction of biofilm relative to the two control values (dispersion)
Description: as §5

| Compound | inhibition at 32 µM [1] [%] | inhibition at 160 µM [1] [%] | inhibition at 390 µM [1] [%] | inhibition at 32 µM [2] [%] | inhibition at 160 µM [2] [%] | inhibition at 390 µM [2] [%] | inhibition at 32 µM [3] [%] | inhibition at 160 µM [3] [%] | inhibition at 390 µM [3] [%] | inhibition at 390 µM [4] [%] | inhibition at 390 µM [5] [%] | inhibition at 390 µM [6] [%] |
| --- | --- | --- | --- | --- | --- | --- | --- | --- | --- | --- | --- | --- |
| CCCCCCCCNC(=O)[C@H]1CCCCN1C(C)=O [Compound 24] | -12 | -22 | -11 | -1 | -6 | -2 | -8 | -20 | -53 | -17 | 0 | -8 |
| CCCCCCCCCCNC(=O)[C@@H]1CCN1 [Compound 289, (S)-(−)-2-azetidinecarboxylic acid n-decyl amide] | 9 | -2 | 77 | -8 | 45 | 99 | 39 | 101 | 101 | -54 | 19 | 84 |
| CCCCCCCCCCCCNC(=O)[C@H]1CCCN1C(=O)OC(C)(C)C [Compound 159] | -9 | -38 | -50 | -1 | -3 | -13 | -9 | -20 | -3 | -55 | -94 | 0 |
| CCCCCCCCCCNC(=O)[C@H]1CCCN1 [Compound 166] | 10 | 22 | 96 | 0 | 57 | 98 | 13 | 100 | 101 | -2 | 0 | 70 |
| CCCCCCCCNC(=O)[C@H]1CCCCN1 [Compound 23, (R)-(+)-2-piperidinecarboxylic acid n-octyl amide] | -5 | -31 | -3 | -23 | -13 | 21 | -1 | 15 | -36 | 0 | 26 | 0 |
| CCCCCCCCCCNC(=O)[C@H]1CCCN1C(=O)OC(C)(C)C [Compound 158] | 1 | -34 | -40 | 3 | -11 | -40 | -10 | 52 | 54 | -53 | -79 | 0 |
| CCCCCCNC(=O)[C@@H]1CCN1 [Compound 287] | -1 | 11 | -2 | -42 | -7 | 40 | 74 | 101 | 101 | -70 | -18 | 71 |
| CC(C)(C)OC(=O)N1CCC[C@@H]1C(=O)NCCCCCCCCCCCCNC(=O)[C@H]1CCCN1C(=O)OC(C)(C)C [Compound 225, N-(tert-Butoxycarbonyl)-D-proline 1,12-diaminododecane bisamide] | 11 | 7 | -8 | 14 | 0 | -14 | -21 | -24 | -39 | -23 | -85 | 0 |
| CCCCCCCCNC(=O)[C@@H]1CCCCN1C(=O)OC(C)(C)C [Compound 19] | 10 | -2 | -17 | 6 | 8 | 10 | -11 | -33 | -11 | -25 | 0 | -3 |
